Assay results published in paper PMC6409085, “Three odorant-binding proteins are involved in the behavioral response of Sogatella furcifera to rice plant volatiles” (PeerJ, 2019).
Several values for one entry are separate records, joined by “and”; a condition that tells them apart may be missing. Equal entries are not always repeated.

Tests used:
[1] = target: SfurOBP1 (Sogatella furcifera, UniProt V5T8N5); test: biochemical; format: binding; conditions: for Fluorescence competitive binding assay, fluorescence intensity: OBP1, three replicate columns
Summary of the method: (§1)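 First, 2.0 µM protein in 50 mM Tris-HCl (pH 7.4) was titrated with 1-NPN to obtain K1-NPN. Then odorants (2–20 µM final) competed against 2.0 µM 1-NPN, with fluorescence (ex 337 nm) recorded after 2 min. Ki was computed from IC50 via Ki = IC50/(1 + [1-NPN]/K1-NPN).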

[2] = target: SfurOBP11 (Sogatella furcifera, UniProt V5T6E3); test: biochemical; format: binding
Summary of the method: as §1

[3] = target: SfurOBP2 (Sogatella furcifera, UniProt V5T759); test: biochemical; format: binding
Summary of the method: as §1

[4] = target: SfurOBP3 (Sogatella furcifera, UniProt V5T818); test: biochemical; format: binding; conditions: for Fluorescence competitive binding assay, fluorescence intensity: OBP3, three replicate columns
Summary of the method: as §1

[5] = system: S. furcifera adults; test: Y-tube olfactometer behavioral trials; format: in vivo, Sogatella furcifera; conditions: odorant 50 µL/L vs hexane; adults
Summary of the method: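 Single S. furcifera adults (2 days post-emergence, starved 0.5 h) chose between odorant (100 µL of 50 µL/L on filter paper) and hexane control in a glass Y-tube, charcoal-filtered humidified air 300 mL/min per arm, 25 ± 1 °C, 50% RH. Choice scored if insect passed half an arm and stayed >1 min within 10 min; 45 insects per compound, chi-squared test.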

SfurOBP11, sequence (V5T6E3 entry or part of it): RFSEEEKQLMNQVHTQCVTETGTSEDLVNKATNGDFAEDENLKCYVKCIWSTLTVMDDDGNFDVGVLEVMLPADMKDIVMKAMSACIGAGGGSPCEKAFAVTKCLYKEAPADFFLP
SfurOBP3, sequence (V5T818 entry or part of it): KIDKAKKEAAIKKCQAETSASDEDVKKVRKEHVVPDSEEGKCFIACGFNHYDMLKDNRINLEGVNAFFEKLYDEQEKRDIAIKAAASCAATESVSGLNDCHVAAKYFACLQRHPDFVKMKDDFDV
SfurOBP1, sequence (V5T8N5 entry or part of it): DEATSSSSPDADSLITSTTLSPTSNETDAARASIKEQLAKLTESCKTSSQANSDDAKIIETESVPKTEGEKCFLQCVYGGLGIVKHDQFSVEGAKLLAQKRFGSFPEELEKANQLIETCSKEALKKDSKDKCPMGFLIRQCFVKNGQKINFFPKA
SfurOBP2, sequence (V5T759 entry or part of it): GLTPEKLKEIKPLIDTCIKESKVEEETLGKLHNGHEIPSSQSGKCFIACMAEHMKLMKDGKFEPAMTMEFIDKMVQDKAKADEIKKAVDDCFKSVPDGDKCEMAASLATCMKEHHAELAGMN

Fluorescence competitive binding assay, fluorescence intensity ([1]; ligand concentration 2 (μM)): 6022 and 9475 and 7407
Fluorescence competitive binding assay, fluorescence intensity ([1]; ligand concentration 4 (μM)): 7163 and 8831 and 6832
Fluorescence competitive binding assay, fluorescence intensity ([1]; ligand concentration 6 (μM)): 9235 and 7734 and 8738
Fluorescence competitive binding assay, fluorescence intensity ([1]; ligand concentration 8 (μM)): 7490 and 9773 and 9402
Fluorescence competitive binding assay, fluorescence intensity ([1]; ligand concentration 10 (μM)): 10034 and 9701 and 9801
Fluorescence competitive binding assay, fluorescence intensity ([1]; ligand concentration 12 (μM)): 16511 and 14895 and 12657
Fluorescence competitive binding assay, fluorescence intensity ([1]; ligand concentration 14 (μM)): 9553 and 12263 and 10210
Fluorescence competitive binding assay, fluorescence intensity ([1]; ligand concentration 16 (μM)): 10515 and 10611 and 10617
Fluorescence competitive binding assay, fluorescence intensity ([1]; ligand concentration 18 (μM)): 11876 and 13682 and 11119
Fluorescence competitive binding assay, fluorescence intensity ([1]; ligand concentration 20 (μM)): 17922 and 11049 and 10258
IC50 ([1]; SfurOBP1, protein and 1-NPN both 2.0 µM, competitor 2-20 µM, read-out: IC50): > 20 µM
IC50 ([2]; SfurOBP11, protein and 1-NPN both 2.0 µM, competitor 2-20 µM, read-out: IC50): > 20 µM
Fluorescence intensity, fluorescence competitive binding assay, OBP11 ([2]; ligand concentration 2, replicate 1): 29943
Fluorescence intensity, fluorescence competitive binding assay, OBP11 ([2]; ligand concentration 2, replicate 2): 27499
Fluorescence intensity, fluorescence competitive binding assay, OBP11 ([2]; ligand concentration 2, replicate 3): 28054
Fluorescence intensity, fluorescence competitive binding assay, OBP11 ([2]; ligand concentration 4, replicate 1): 30256
Fluorescence intensity, fluorescence competitive binding assay, OBP11 ([2]; ligand concentration 4, replicate 2): 30866
Fluorescence intensity, fluorescence competitive binding assay, OBP11 ([2]; ligand concentration 4, replicate 3): 29645
Fluorescence intensity, fluorescence competitive binding assay, OBP11 ([2]; ligand concentration 6, replicate 1): 26462
Fluorescence intensity, fluorescence competitive binding assay, OBP11 ([2]; ligand concentration 6, replicate 2): 29047
Fluorescence intensity, fluorescence competitive binding assay, OBP11 ([2]; ligand concentration 6, replicate 3): 31220
Fluorescence intensity, fluorescence competitive binding assay, OBP11 ([2]; ligand concentration 8, replicate 1): 26278
Fluorescence intensity, fluorescence competitive binding assay, OBP11 ([2]; ligand concentration 8, replicate 2): 28884
Fluorescence intensity, fluorescence competitive binding assay, OBP11 ([2]; ligand concentration 8, replicate 3): 31318
Fluorescence intensity, fluorescence competitive binding assay, OBP11 ([2]; ligand concentration 10, replicate 1): 27323
Fluorescence intensity, fluorescence competitive binding assay, OBP11 ([2]; ligand concentration 10, replicate 2): 28751
Fluorescence intensity, fluorescence competitive binding assay, OBP11 ([2]; ligand concentration 10, replicate 3): 30741
Fluorescence intensity, fluorescence competitive binding assay, OBP11 ([2]; ligand concentration 12, replicate 1): 30511
Fluorescence intensity, fluorescence competitive binding assay, OBP11 ([2]; ligand concentration 12, replicate 2): 30637
Fluorescence intensity, fluorescence competitive binding assay, OBP11 ([2]; ligand concentration 12, replicate 3): 30384
Fluorescence intensity, fluorescence competitive binding assay, OBP11 ([2]; ligand concentration 14, replicate 1): 29980
Fluorescence intensity, fluorescence competitive binding assay, OBP11 ([2]; ligand concentration 14, replicate 2): 30187
Fluorescence intensity, fluorescence competitive binding assay, OBP11 ([2]; ligand concentration 14, replicate 3): 31537
Fluorescence intensity, fluorescence competitive binding assay, OBP11 ([2]; ligand concentration 16, replicate 1): 25150
Fluorescence intensity, fluorescence competitive binding assay, OBP11 ([2]; ligand concentration 16, replicate 2): 28430
Fluorescence intensity, fluorescence competitive binding assay, OBP11 ([2]; ligand concentration 16, replicate 3): 29261
Fluorescence intensity, fluorescence competitive binding assay, OBP11 ([2]; ligand concentration 18, replicate 1): 33050
Fluorescence intensity, fluorescence competitive binding assay, OBP11 ([2]; ligand concentration 18, replicate 2): 34724
Fluorescence intensity, fluorescence competitive binding assay, OBP11 ([2]; ligand concentration 18, replicate 3): 33545
Fluorescence intensity, fluorescence competitive binding assay, OBP11 ([2]; ligand concentration 20, replicate 1): 33953
Fluorescence intensity, fluorescence competitive binding assay, OBP11 ([2]; ligand concentration 20, replicate 2): 35669
Fluorescence intensity, fluorescence competitive binding assay, OBP11 ([2]; ligand concentration 20, replicate 3): 33542
IC50 ([3]; SfurOBP2, protein and 1-NPN both 2.0 µM, competitor 2-20 µM, read-out: IC50): > 20 µM
Fluorescence competitive binding assay, OBP2 (raw fluorescence reading) ([3]; ligand concentration 2 (unit not given), replicate column 1 of 3): 17681
Fluorescence competitive binding assay, OBP2 (raw fluorescence reading) ([3]; ligand concentration 2 (unit not given), replicate column 2 of 3): 15844
Fluorescence competitive binding assay, OBP2 (raw fluorescence reading) ([3]; ligand concentration 2 (unit not given), replicate column 3 of 3): 16950
Fluorescence competitive binding assay, OBP2 (raw fluorescence reading) ([3]; ligand concentration 4 (unit not given), replicate column 1 of 3): 17519
Fluorescence competitive binding assay, OBP2 (raw fluorescence reading) ([3]; ligand concentration 4 (unit not given), replicate column 2 of 3): 20288
Fluorescence competitive binding assay, OBP2 (raw fluorescence reading) ([3]; ligand concentration 4 (unit not given), replicate column 3 of 3): 20488
Fluorescence competitive binding assay, OBP2 (raw fluorescence reading) ([3]; ligand concentration 6 (unit not given), replicate column 1 of 3): 19784
Fluorescence competitive binding assay, OBP2 (raw fluorescence reading) ([3]; ligand concentration 6 (unit not given), replicate column 2 of 3): 21064
Fluorescence competitive binding assay, OBP2 (raw fluorescence reading) ([3]; ligand concentration 6 (unit not given), replicate column 3 of 3): 19193
Fluorescence competitive binding assay, OBP2 (raw fluorescence reading) ([3]; ligand concentration 8 (unit not given), replicate column 1 of 3): 20311
Fluorescence competitive binding assay, OBP2 (raw fluorescence reading) ([3]; ligand concentration 8 (unit not given), replicate column 2 of 3): 19912
Fluorescence competitive binding assay, OBP2 (raw fluorescence reading) ([3]; ligand concentration 8 (unit not given), replicate column 3 of 3): 20694
Fluorescence competitive binding assay, OBP2 (raw fluorescence reading) ([3]; ligand concentration 10 (unit not given), replicate column 1 of 3): 21153
Fluorescence competitive binding assay, OBP2 (raw fluorescence reading) ([3]; ligand concentration 10 (unit not given), replicate column 2 of 3): 20155
Fluorescence competitive binding assay, OBP2 (raw fluorescence reading) ([3]; ligand concentration 10 (unit not given), replicate column 3 of 3): 21164
Fluorescence competitive binding assay, OBP2 (raw fluorescence reading) ([3]; ligand concentration 12 (unit not given), replicate column 1 of 3): 17882
Fluorescence competitive binding assay, OBP2 (raw fluorescence reading) ([3]; ligand concentration 12 (unit not given), replicate column 2 of 3): 20189
Fluorescence competitive binding assay, OBP2 (raw fluorescence reading) ([3]; ligand concentration 12 (unit not given), replicate column 3 of 3): 20719
Fluorescence competitive binding assay, OBP2 (raw fluorescence reading) ([3]; ligand concentration 14 (unit not given), replicate column 1 of 3): 19553
Fluorescence competitive binding assay, OBP2 (raw fluorescence reading) ([3]; ligand concentration 14 (unit not given), replicate column 2 of 3): 20680
Fluorescence competitive binding assay, OBP2 (raw fluorescence reading) ([3]; ligand concentration 14 (unit not given), replicate column 3 of 3): 20531
Fluorescence competitive binding assay, OBP2 (raw fluorescence reading) ([3]; ligand concentration 16 (unit not given), replicate column 1 of 3): 20438
Fluorescence competitive binding assay, OBP2 (raw fluorescence reading) ([3]; ligand concentration 16 (unit not given), replicate column 2 of 3): 19246
Fluorescence competitive binding assay, OBP2 (raw fluorescence reading) ([3]; ligand concentration 16 (unit not given), replicate column 3 of 3): 20069
Fluorescence competitive binding assay, OBP2 (raw fluorescence reading) ([3]; ligand concentration 18 (unit not given), replicate column 1 of 3): 24630
Fluorescence competitive binding assay, OBP2 (raw fluorescence reading) ([3]; ligand concentration 18 (unit not given), replicate column 2 of 3): 24806
Fluorescence competitive binding assay, OBP2 (raw fluorescence reading) ([3]; ligand concentration 18 (unit not given), replicate column 3 of 3): 23381
Fluorescence competitive binding assay, OBP2 (raw fluorescence reading) ([3]; ligand concentration 20 (unit not given), replicate column 1 of 3): 26164
Fluorescence competitive binding assay, OBP2 (raw fluorescence reading) ([3]; ligand concentration 20 (unit not given), replicate column 2 of 3): 20955
Fluorescence competitive binding assay, OBP2 (raw fluorescence reading) ([3]; ligand concentration 20 (unit not given), replicate column 3 of 3): 19728
Fluorescence competitive binding assay, fluorescence intensity ([4]; ligand concentration 2): 83183 and 87404 and 88774
Fluorescence competitive binding assay, fluorescence intensity ([4]; ligand concentration 4): 91510 and 89708 and 93194
Fluorescence competitive binding assay, fluorescence intensity ([4]; ligand concentration 6): 97532 and 94447 and 95269
Fluorescence competitive binding assay, fluorescence intensity ([4]; ligand concentration 8): 93074 and 89520 and 89172
Fluorescence competitive binding assay, fluorescence intensity ([4]; ligand concentration 10): 92952 and 88800 and 85833
Fluorescence competitive binding assay, fluorescence intensity ([4]; ligand concentration 12): 87947 and 90919 and 89332
Fluorescence competitive binding assay, fluorescence intensity ([4]; ligand concentration 14): 86216 and 85989 and 89098
Fluorescence competitive binding assay, fluorescence intensity ([4]; ligand concentration 16): 77694 and 82013 and 80619
Fluorescence competitive binding assay, fluorescence intensity ([4]; ligand concentration 18): 91776 and 100406 and 90755
Fluorescence competitive binding assay, fluorescence intensity ([4]; ligand concentration 20): 89755 and 85247 and 85349
IC50 ([4]; SfurOBP3, protein and 1-NPN both 2.0 µM, competitor 2-20 µM, read-out: IC50): > 20 µM
SMILES: CCCCCCCCCCCCCC [n-tetradecane]
number of insects choosing hexane arm [5]: 13
number of insects choosing volatilies arm [5]: 14
number of insects failed (no choice) [5]: 13
